Source: patent US12410171B2, “Tropomyosin receptor kinase (TRK) degradation compounds and methods of use” (Cullgen (Shanghai), Inc., priority 2020, dated 2025)

Test system: KM12 cells
Assay: KM12 cell viability (CellTiter-Glo)
Format: cell-based
Settings: Homo sapiens, 72 h; KM12 cell viability, 11-point 3-fold serial dilution, 3 days, CellTiter-Glo; read-out: IC50
How it was run: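 KM12 cells seeded at 5000 per well in RPMI 1640 + 10% FBS and exposed 3 days to serial dilutions (11-point 3-fold, 8-point 3-fold from 1000 nM, or 12-point 2-fold). Viability by CellTiter-Glo; IC50 from least-squares nonlinear regression.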

| SMILES | IC50 [nM] |
| --- | --- |
| Cc1ncsc1-c1ccc(CNC(=O)[C@@H]2C[C@@H](O)CN2C(=O)[C@@H](NC(=O)CCOCCOCCOCCOCCC(=O)N2CCN(Cc3ccc(NC(=O)c4coc(N5CCOCC5)n4)c(N4CCC(C(N)=O)CC4)c3)CC2)C(C)(C)C)cc1 [CPD-497, N-(2-(4-carbamoylpiperidin-1-yl)-4-((4-((S)-18-((2S,4R)-4-hydroxy-2-((4-(4-methylthiazol-5-yl)benzyl)carbamooyl)pyrrolidine-1-carbonyl)-19,19-dimethyl-16-oxo-4,7,10,13-tetraoxa-17-azaicosanoyl)piperazin-1-yl)methyl)phenyl)-2-morpholinooxazole-4-carboxamide] | > 10000 |
| COc1ccc(COc2ccc(Cn3c(N)nc4cc(-c5cnn(CC(=O)NCCOCCNc6cccc7c6C(=O)N(C6CCC(=O)NC6=O)C7=O)c5)cnc43)cc2OC)cc1 (stereo not drawn) [CPD-502, 2-(4-(2-amino-3-(3-methoxy-4-((4-methoxybenzyl)oxy)benzyl)-3H-imidazo[4,5-b]pyridin-6-yl)-1H-pyrazol-1-yl)-N-(2-(2-((2-(2,6-dioxopiperidin-3-yl)-1,3-dioxoisoindolin-4-yl)amino)ethoxy)ethyl)acetamide] | 682 |
| COc1ccc(COc2ccc(Cn3c(N)nc4cc(-c5cnn(CC(=O)NCCOCCOCCNc6cccc7c6C(=O)N(C6CCC(=O)NC6=O)C7=O)c5)cnc43)cc2OC)cc1 (stereo not drawn) [CPD-503, 2-(4-(2-amino-3-(3-methoxy-4-((4-methoxybenzyl)oxy)benzyl)-3H-imidazo[4,5-b]pyridin-6-yl)-1H-pyrazol-1-yl)-N-(2-(2-(2-((2-(2,6-dioxopiperidin-3-yl)-1,3-dioxoisoindolin-4-yl)amino)ethoxy)ethoxy)ethyl)acetamide] | 504 |
| COc1ccc(COc2ccc(Cn3c(N)nc4cc(-c5cnn(CC(=O)NCCOCCOCCOCCNc6cccc7c6C(=O)N(C6CCC(=O)NC6=O)C7=O)c5)cnc43)cc2OC)cc1 (stereo not drawn) [CPD-504, 2-(4-(2-amino-3-(3-methoxy-4-((4-methoxybenzyl)oxy)benzyl)-3H-imidazo[4,5-b]pyridin-6-yl)-1H-pyrazol-1-yl)-N-(2-(2-(2-(2-((2-(2,6-dioxopiperidin-3-yl)-1,3-dioxoisoindolin-4-yl)amino)ethoxy)ethoxy)ethoxy)ethyl)acetamide] | 334 |
| COc1ccc(COc2ccc(Cn3c(N)nc4cc(-c5cnn(CC(=O)NCCOCCOCCOCCOCCNc6cccc7c6C(=O)N(C6CCC(=O)NC6=O)C7=O)c5)cnc43)cc2OC)cc1 (stereo not drawn) [CPD-505, 2-(4-(2-amino-3-(3-methoxy-4-((4-methoxybenzyl)oxy)benzyl)-3H-imidazo[4,5-b]pyridin-6-yl)-1H-pyrazol-1-yl)-N-(14-((2-(2,6-dioxopiperidin-3-yl)-1,3-dioxoisoindolin-4-yl)amino)-3,6,9,12-tetraoxatetradecyl)acetamide] | 195 |
| COc1ccc(COc2ccc(Cn3c(N)nc4cc(-c5cnn(CC(=O)NCCOCCOCCOCCOCCOCCNc6cccc7c6C(=O)N(C6CCC(=O)NC6=O)C7=O)c5)cnc43)cc2OC)cc1 (stereo not drawn) [CPD-506, 2-(4-(2-amino-3-(3-methoxy-4-((4-methoxybenzyl)oxy)benzyl)-3H-imidazo[4,5-b]pyridin-6-yl)-1H-pyrazol-1-yl)-N-(17-((2-(2,6-dioxopiperidin-3-yl)-1,3-dioxoisoindolin-4-yl)amino)-3,6,9,12,15-pentaoxaheptadecyl)acetamide] | 204 |
| COc1ccc(COc2ccc(Cn3c(N)nc4cc(-c5cnn(CC(=O)NCC(=O)N[C@H](C(=O)N6C[C@H](O)C[C@H]6C(=O)NCc6ccc(-c7scnc7C)cc6)C(C)(C)C)c5)cnc43)cc2OC)cc1 [CPD-507] | 1520 |
| COc1ccc(COc2ccc(Cn3c(N)nc4cc(-c5cnn(CC(=O)NCCCC(=O)N[C@H](C(=O)N6C[C@H](O)C[C@H]6C(=O)NCc6ccc(-c7scnc7C)cc6)C(C)(C)C)c5)cnc43)cc2OC)cc1 [CPD-508, (2S,4R)-1-((S)-2-(4-(2-(4-(2-amino-3-(3-methoxy-4-((4-methoxybenzyl)oxy)benzyl)-3H-imidazo[4,5-b]pyridin-6-yl)-1H-pyrazol-1-yl)acetamido)butanamido)-3,3-dimethylbutanoyl)-4-hydroxy-N-(4-(4-methylthiazol-5-yl)benzyl)pyrrolidine-2-carboxamide] | 2100 |
| COc1ccc(COc2ccc(Cn3c(N)nc4cc(-c5cnn(CC(=O)NCCCCCC(=O)N[C@H](C(=O)N6C[C@H](O)C[C@H]6C(=O)NCc6ccc(-c7scnc7C)cc6)C(C)(C)C)c5)cnc43)cc2OC)cc1 [CPD-509, (2S,4R)-1-((S)-2-(6-(2-(4-(2-amino-3-(3-methoxy-4-((4-methoxybenzyl)oxy)benzyl)-3H-imidazo[4,5-b]pyridin-6-yl)-1H-pyrazol-1-yl)acetamido)hexanamido)-3,3-dimethylbutanoyl)-4-hydroxy-N-(4-(4-methylthiazol-5-yl)benzyl)pyrrolidine-2-carboxamide] | 53.1 |
| COc1ccc(COc2ccc(Cn3c(N)nc4cc(-c5cnn(CC(=O)NCCOCCC(=O)N[C@H](C(=O)N6C[C@H](O)C[C@H]6C(=O)NCc6ccc(-c7scnc7C)cc6)C(C)(C)C)c5)cnc43)cc2OC)cc1 [CPD-512, (2S,4R)-1-((S)-2-(3-(2-(2-(4-(2-amino-3-(3-methoxy-4-((4-methoxybenzyl)oxy)benzyl)-3H-imidazo[4,5-b]pyridin-6-yl)-1H-pyrazol-1-yl)acetamido)ethoxy)propanamido)-3,3-dimethylbutanoyl)-4-hydroxy-N-(4-(4-methylthiazol-5-yl)benzyl)pyrrolidine-2-carboxamide] | 307 |
| COc1ccc(COc2ccc(Cn3c(N)nc4cc(-c5cnn(CC(=O)NCCOCCOCCC(=O)N[C@H](C(=O)N6C[C@H](O)C[C@H]6C(=O)NCc6ccc(-c7scnc7C)cc6)C(C)(C)C)c5)cnc43)cc2OC)cc1 [CPD-513, (2S,4R)-1-((S)-1-(4-(2-amino-3-(3-methoxy-4-((4-methoxybenzyl)oxy)benzyl)-3H-imidazo[4,5-b]pyridin-6-yl)-1H-pyrazol-1-yl)-14-(tert-butyl)-2,12-dioxo-6,9-dioxa-3,13-diazapentadecan-15-oyl)-4-hydroxy-N-(4-(4-methylthiazol-5-yl)benzyl)pyrrolidine-2-carboxamide] | 261 |
| COc1ccc(COc2ccc(Cn3c(N)nc4cc(-c5cnn(CC(=O)NCCOCCOCCOCCC(=O)N[C@H](C(=O)N6C[C@H](O)C[C@H]6C(=O)NCc6ccc(-c7scnc7C)cc6)C(C)(C)C)c5)cnc43)cc2OC)cc1 [CPD-514, (2S,4R)-1-((S)-1-(4-(2-amino-3-(3-methoxy-4-((4-methoxybenzyl)oxy)benzyl)-3H-imidazo[4,5-b]pyridin-6-yl)-1H-pyrazol-1-yl)-17-(tert-butyl)-2,15-dioxo-6,9,12-trioxa-3,16-diazaoctadecan-18-oyl)-4-hydroxy-N-(4-(4-methylthiazol-5-yl)benzyl)pyrrolidine-2-carboxamide] | 174 |
| COc1ccc(COc2ccc(Cn3c(N)nc4cc(-c5cnn(CC(=O)NCCOCCOCCOCCOCCC(=O)N[C@H](C(=O)N6C[C@H](O)C[C@H]6C(=O)NCc6ccc(-c7scnc7C)cc6)C(C)(C)C)c5)cnc43)cc2OC)cc1 [CPD-515, (2S,4R)-1-((S)-1-(4-(2-amino-3-(3-methoxy-4-((4-methoxybenzyl)oxy)benzyl)-3H-imidazo[4,5-b]pyridin-6-yl)-1H-pyrazol-1-yl)-20-(tert-butyl)-2,18-dioxo-6,9,12,15-tetraoxa-3,19-diazahenicosan-21-oyl)-4-hydroxy-N-(4-(4-methylthiazol-5-yl)benzyl)pyrrolidine-2-carboxamide] | 343 |
| COc1ccc(COc2ccc(Cn3c(N)nc4cc(-c5cnn(CC(=O)NCCOCCOCCOCCOCCOCCC(=O)N[C@H](C(=O)N6C[C@H](O)C[C@H]6C(=O)NCc6ccc(-c7scnc7C)cc6)C(C)(C)C)c5)cnc43)cc2OC)cc1 [CPD-516, (2S,4R)-1-((S)-1-(4-(2-amino-3-(3-methoxy-4-((4-methoxybenzyl)oxy)benzyl)-3H-imidazo[4,5-b]pyridin-6-yl)-1H-pyrazol-1-yl)-23-(tert-butyl)-2,21-dioxo-6,9,12,15,18-pentaoxa-3,22-diazatetracosan-24-oyl)-4-hydroxy-N-(4-(4-methylthiazol-5-yl)benzyl)pyrrolidine-2-carboxamide] | 473 |

Same assay, conditions: Homo sapiens, 72 h; KM12 cell viability, CellTiter-Glo, three days treatment; read-out: IC50

| SMILES | IC50 [nM] |
| --- | --- |
| O=C1CCC(N2Cc3cc(OCCN4CCN(c5cccc(-c6cnc7ccc(N8CCC[C@@H]8c8cccc(F)c8)nn67)n5)CC4)ccc3C2=O)C(=O)N1 (stereo partly drawn) [TR-200, 3-(5-(2-(4-(6-(6-((R)-2-(3-fluorophenyl)pyrrolidin-1-yl)imidazo[1,2-b]pyridazin-3-yl)pyridin-2-yl)piperazin-1-yl)ethoxy)-1-oxoisoindolin-2-yl)piperidine-2,6-dione] | 101 |
| O=C1CCC(N2Cc3ccc(OCCN4CCN(c5cccc(-c6cnc7ccc(N8CCC[C@@H]8c8cccc(F)c8)nn67)n5)CC4)cc3C2=O)C(=O)N1 (stereo partly drawn) [TR-201, 3-(6-(2-(4-(6-(6-((R)-2-(3-fluorophenyl)pyrrolidin-1-yl)imidazo[1,2-b]pyridazin-3-yl)pyridin-2-yl)piperazin-1-yl)ethoxy)-1-oxoisoindolin-2-yl)piperidine-2,6-dione] | > 500 |
| O=C1CCC(N2C(=O)c3ccc(N4CC(CN5CCC(n6ccc(-c7cnc8ccc(N9CCC[C@@H]9c9cccc(F)c9)nn78)c6)CC5)C4)cc3C2=O)C(=O)N1 (stereo partly drawn) [TR-222, 2-(2,6-Dioxopiperidin-3-yl)-5-(3-((4-(3-(6-((R)-2-(3-fluorophenyl)pyrrolidin-1-yl)imidazo[1,2-b]pyridazin-3-yl)-1H-pyrrol-1-yl)piperidin-1-yl)methyl)azetidin-1-yl)isoindoline-1,3-dione] | > 500 |
| O=C1CCC(N2C(=O)c3ccc(N4CC(CN5CCN(c6cccc(-c7cnc8ccc(N9CCC[C@@H]9c9cccc(F)c9)cn78)n6)CC5)C4)cc3C2=O)C(=O)N1 (stereo partly drawn) [TR-234, 2-(2,6-dioxopiperidin-3-yl)-5-(3-((4-(6-(6-((R)-2-(3-fluorophenyl)pyrrolidin-1-yl)imidazo[1,2-a]pyridin-3-yl)pyridin-2-yl)piperazin-1-yl)methyl)azetidin-1-yl)isoindoline-1,3-dione] | 284 |
